Data reported in US20060167046A1, “Histamine h3 receptor antagonists, preparation and therapeutic uses” (Eli Lilly and Company Patent Division, priority 2002, published 2006).

Target: T1, H3R membranes (H3R8-expressing HEK293 cell line) (Homo sapiens, UniProt Q9Y5N1)
T1 construct: expressed in transfected cells
Experiment: [35S]GTPγS binding assay, H3R membranes in the presence of agonist
Assay type: biochemical
Settings: inhibition of [35S]GTPγS binding to H3R membranes in presence of agonist R(-)alpha methylhistamine; room temperature, pH 7.4
Procedure: Membranes isolated as described in (Preparation of Histamine Receptor Subtype Membranes) were used in a [^35S]GTPχS functional assay. Binding of [^35S]GTPχS to membranes indicates agonist activity. Compounds of the invention of Formula I were tested for their ability to inhibit binding in the presence of agonists. Alternately, the same transfected cell lines were used for a cAMP assay wherein H3R agonists inhibited forskolin-activated synthesis of cAMP. Compounds of Formula I were tested for their ability to permit forskolin-stimulated cAMP synthesis in the presence of agonist. cDNA for the human histamine 3 receptor was cloned and expressed as described in (A. Preparation H1R membranes), above. Transfected cells were selected using G418 ([…]), grown, and tested for histamine binding by the SPA described above. For total binding, cells were assayed in a SPA reaction described above containing 50 mM Tris-HCL (assay buffer), pH 7.6, 1 mg wheat germ agglutinin SPA beads (Amersham Pharmacia Biotech, #RPNQ0001), and 1 nM (^3H)-n-alpha-methylhistamine (NEN, NET1027) (total volume per well=200 μl). Thioperimide was added to determine non-specific binding. Several clones were selected as positive for binding, and a single clone (H3R8) was used to prepare membranes for binding studies described above. […] Plates were counted in Wallac Trilux 1450 Microbeta scintillation counter for 1 minute. […]

T1 sequence (Q9Y5N1 whole entry): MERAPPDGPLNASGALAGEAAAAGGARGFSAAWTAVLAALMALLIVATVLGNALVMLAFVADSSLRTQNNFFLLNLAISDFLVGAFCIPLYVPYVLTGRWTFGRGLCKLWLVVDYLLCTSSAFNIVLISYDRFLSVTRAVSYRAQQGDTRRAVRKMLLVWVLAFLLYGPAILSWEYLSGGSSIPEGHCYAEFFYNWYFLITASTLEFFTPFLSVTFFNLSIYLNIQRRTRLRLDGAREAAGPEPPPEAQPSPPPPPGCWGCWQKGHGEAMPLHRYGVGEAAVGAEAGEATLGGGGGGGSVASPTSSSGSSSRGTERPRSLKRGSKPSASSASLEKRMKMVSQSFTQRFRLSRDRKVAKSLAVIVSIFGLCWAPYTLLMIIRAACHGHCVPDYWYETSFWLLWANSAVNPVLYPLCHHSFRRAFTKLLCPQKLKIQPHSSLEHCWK

Row | Ki [nM] | Structure (SMILES)
1 | 12.6 | O=C(c1cccs1)N1CCCc2ccc(OCCCN3CCCCC3)cc21 [Example 6, [7-(3-Piperidin-1-yl-propoxy)-3,4-dihydro-2H-quinolin-1-yl]-thiophen-2-yl-methanone]
2 | 0.5 | CN1CCC[C@H]1CN1CCc2cc(OCCCN3CCCCC3)ccc21 [Example 60, (S)-1-(1-Methyl-pyrrolidin-2-ylmethyl)-5-(3-piperidin-1-yl-propoxy)-2,3-dihydro-1H-indole]
